From patent US20060018825A1, “Probe for diseases with amyloid accumulation, amyloid-staining agent, remedy and preventive for diseases with amyloid accumulation and diagnostic probe and staining agent for neurofibrillary change” (BF RESEARCH INSTITUTE, INC., priority 2003, published 2006)
“Also recorded” adds a separate entry of the source.

What was measured:
[1] = Acute toxicity testing by intravenous administration; assay type: in vivo; details: male Crj:CD1 mice, observed up to 7 days
Experimental: (A) Testing of Acute Toxicity
Acute toxicity of the inventive compounds was determined employing mice by intravenous administration. Male Crj:CD1 mice were used and divided into groups of 4 mice, with an average weight of each group of 31-32 g. […] Up to 7 days after administration, observations were made.

[2] = Blood-brain barrier permeability after intravenous administration; assay type: in vivo; details: Slc:ICR, mouse, not told; mice, two minutes after intravenous administration; read-out: content in Brain (blood-brain barrier permeability)
Text: (B) Testing of Blood-Brain Barrier Permeability

[3] = test system: senile plaques and diffuse plaques (amyloid β-protein) in brain sections; experiment: Staining of senile plaques and diffuse plaques in brain sections of an Alzheimer's disease patient; set-up: species or system human; details: for staining properties in sections of the brain of a patient with Alzheimer's disease (senile plaques): 100 μM compound in 50% ethanol, compared with thioflavin S or anti-Aβ antibody 6F/3D on adjacent section; for staining of diffuse plaques in sections of the brain of a patient with Alzheimer's disease: 100 μM compound, diffuse plaques stained with anti-Aβ antibody 6F/3D on adjacent section
Text: (§1) The following explanation is made about testing of staining properties of the compounds of the present invention on brain sections of an Alzheimer's disease patient.
(§2) (1) Temporal lobe or hippocampus specimens of the brain of a patient who had been definitely diagnosed pathologically as Alzheimer's disease and of a normal aged individual were used. These specimens were provided from Fukushimura Hospital, our joint research facility, with the consent to their use for research purpose received from the bereaved family of the patient (BF Research Laboratories Institutional Ethics Board Permission No. RS-99-02).
(§3) (2) The brain tissues embedded in paraffin were sliced 6 or 8 μm thick, extended on slides, and dried. The paraffin-embedded brain sections were deparaffined by washing sequentially with xylene (10 minutes, twice), 100% ethanol (15 minutes, twice), 95% ethanol (15 minutes, twice), and a stream of water (10 minutes).
(§4) (3) Pre-treatment for staining with compounds of the present invention involved treating the sections for eliminating self-fluorescence due to lipofuscin. First, the deparaffined sections were immersed into a 10% formalin solution for 60 minutes and washed with PBS for 5 minutes, followed by immersion into a 0.25% solution of KMnO4 for 90 minutes. After washing twice with PBS for 2 minutes each, the sections were immersed into a solution of 0.1% K2S2O5/oxalic acid for about 30 seconds each, and then washed three times with PBS for 2 minutes each.
(§5) (4) About 150 μl of a 100 μM solution of a compound of the present invention dissolved in 50% ethanol was added dropwise onto the sections and allowed the reaction to be carried out for 10 minutes. The sections were dipped into tap water five times, and then 50% ethanol three to five times, followed by immediate classification. After that, the sections were immersed into PBS for 60 minutes, enclosed with Fluor Save Reagent (Calbiochem), and examined under a fluorescent microscope (Nikon, Eclips E800) . Pictures were taken using a digital camera (Plaroid PDMCII).
Immunostaining was carried out as follows.
(a) Procedures for Immunostaining Amyloid β-Protein:
(1) After the sections were deparaffined, the sections were washed twice in distilled water for 2 minutes each, and tissues were marked with an Immunopen. About 150 μl of formic acid was added dropwise and allowed to stand at room temperature for 5 minutes. The sections were washed with tap water for 5 minutes and immersed into cold PBS-Tween 20 for 2 minutes, and then about 150 μl of a 0.05% trypsin solution was added dropwise and allowed the reaction to be carried out at 37° C. for 15 minutes.
(2) In an ice bath, the sections were washed twice with cold PBS-Tween 20 for 5 minutes each, and two drops of blocking serum were added and allowed the reaction to be carried out at 37° C. for 15 minutes. Excess water was removed, and about 150 μl of 6F/3D, an antibody specific to amyloid β-protein (DAKO; diluted 1:50) was added dropwise and allowed the reaction to be carried out at 37° C. for 1 hour.
(3) Further, after washing five times with cold PBS-Tween 20 for 2 minutes each, two drops of a solution of goat anti-mouse IgG (H+L) conjugated to biotin were added and allowed the reaction to be carried out at 37° C. for 1 hour. After that, the sections were washed three times with cold PBS-Tween 20 for 2 minutes each, and two drops of ABS solution (a streptavidin-biotin-peroxidase complex solution) were added and allowed to stand for 30 minutes. The sections were again washed three times with cold PBS-Tween 20 for 2 minutes each, and about 150 μl of DAB solution (prepared by dissolving 10 mg of DAB in 20 ml of 0.05 mol/l Tris-HCl buffer and adding 100 μl of 3% hydrogen peroxide immediately before use) were added and allowed the color to be developed sufficiently. Then, the sections were washed with distilled water for 1 minute to stop the reaction, enclosed, and examined under a microscope.

[4] = test system: neurofibrillary tangles (tau protein) in brain sections; experiment: Neurofibrillary tangles staining in brain sections of an Alzheimer's disease patient; set-up: species or system human; details: for specificity of staining to tau protein / neurofibrillary tangles: compared with thioflavin S (FIG. 17)
Text: as §1, §2, §3, §4, §5
(b) Procedures for Immunostaining Neurofibrillary Tangles:
(1) Immunostaining of neurofibrillary tangles was carried out as follows. After the sections were deparaffined, the sections were washed twice with distilled water for 2 minutes each, tissues were marked with an Immunopen. About 150 μl of 3% hydrogen peroxide (diluted in methanol) was added dropwise and allowed to stand at room temperature for 10 minutes.
(2) The sections were washed twice with cold PBS-Tween 20 for 5 minutes each, and two drops of blocking serum were added and allowed the reaction to be carried out at 37° C. for 30 minutes. Excess water was removed, and two drops of pSer422, an antibody specific to phosphorylated tau (Wako Phosphorylated Tau Immunohistostain Kit 299-57301) and allowed the reaction to be carried out overnight at 4° C.
(3) On the next day, the sections were washed five times with cold PBS-Tween 20 for 2 minutes each, and two drops of a solution of goat anti-rabbit IgG conjugated to biotin were added and allowed the reaction to be carried out at 37° C. for 1 hour. After that, the sections were washed three times with cold PBS-Tween 20 for 2 minutes each, and two drops of ABS solution (a streptavidin-biotin-peroxidase complex solution) were added and allowed to stand for 30 minutes.
(4) The sections were again washed three times with cold PBS-Tween 20 for 2 minutes each, and about 150 μl of DAB solution (prepared by dissolving 10 mg of DAB in 20 ml of 0.05 mol/l Tris-HCl buffer and adding 100 μl of 3% hydrogen peroxide immediately before use) were added and allowed the color to be developed sufficiently. Then, the sections were washed with distilled water for 1 minute to stop the reaction, enclosed, and examined under a microscope. The blocking serum, the solution of goat anti-rabbit IgG conjugated to biotin, and the ABC solution used were those contained in a Phosphorylated Tau Immunohistostain Kit (Wako 299-57301).

Clearance from the brain = details: in vivo

Compound	staining properties in sections of the brain of a patient with Alzheimer's disease (senile plaques) [3]	specificity of staining to tau protein / neurofibrillary tangles [4]	further results
CNc1ccc(/C=C/C=C/c2nc3ccccc3o2)cc1 [BF-185, 2-[[4-(4-methylamino)phenyl]-1,3-butadienyl)benzoxazole]	mainly stains senile plaques	–	Maximum Tolerated Dose [1]: ≧10 mg/kg; tissue uptake at 2 min [2]: 3.9 %ID/g; staining of diffuse plaques in sections of the brain of a patient with Alzheimer's disease [3]: stains; also recorded: display affinity also for diffuse plaques and provide their clear staining
CNc1ccc(/C=C/C=C/c2nc3ccccc3s2)cc1 [BF-187, 2-[[4-(4-methylamino)phenyl]-1,3-butadienyl)benzothiazole]	stains senile plaques	–	Maximum Tolerated Dose [1]: ≧10 mg/kg; tissue uptake at 2 min [2]: 3.6 %ID/g
CNc1ccc(/C=C/C=C/c2nc3ccccc3[nH]2)cc1 [BF-188, 2-[[4-(4-methylamino)phenyl]1,3-butadienyl]benzoimidazole]	stains senile plaques	–	tissue uptake at 2 min [2]: 4.8 %ID/g
CNc1ccc(/C=C/C=C/C=C/c2ccc3ccccc3n2)cc1 [BF-189, 1-(4-methylaminophenyl)-6-(2-quinolyl)-1,3,5-hexatrien]	stains senile plaques	–	–
CN(C)c1ncc(/C=C/c2nc3ccccc3s2)s1 [BF-196, 2-[2-(2-dimethylaminothiazol-5-yl)ethenyl]benzothiazole]	mainly stains senile plaques	–	–
CN(C)c1ncc(/C=C/c2nc3ccccc3o2)s1 [BF-197, 2-[2-(2-dimethylaminothiazol-5-yl)ethenyl]benzoxazole]	mainly stains senile plaques	–	–
Nc1ccc(/C=C/C=C/c2nc3ccc(O)cc3o2)c(O)c1 [BF-201]	stains senile plaques	–	MTD at 7 days ([1]; mouse, in vivo, read-out: Maximum Tolerated Dose): ≥ 10 mg/kg
Cc1nc(/C=C/c2cnc(N(C)C)s2)oc1C [BF-214, 2-(dimethylamino)-5-[2-(4,5-dimethyloxazol-2-yl)ethenyl]thiazole]	stains senile plaques	–	–
CN(C)c1ncc(-c2ccc3ccccc3n2)o1 [BF-221, 2-(2-dimethylaminooxazol-5-yl)quinoline]	–	high specificity to tau protein	staining of phosphorylated tau protein recognized by antibody pSer422 ([4]; adjacent section immunostained with pSer422 (FIG. 18)): stained phosphorylated tau protein
CN(C)c1ncc(-c2nc3ccccc3o2)s1 [BF-225, 2-(2-dimethylaminothiazol-5-yl)benzoxazole]	–	–	Maximum Tolerated Dose [1]: ≧10 mg/kg
CN(C)c1ncc(/C=C/c2nc3ccc(OCCF)cc3o2)s1 [BF-227, 2-[2-(2-dimethylaminothiazol-5-yl)ethenyl]-6-(2-fluoroethyloxy)benzoxazole]	mainly stains senile plaques	–	staining of diffuse plaques in sections of the brain of a patient with Alzheimer's disease [3]: stains; also recorded: display affinity also for diffuse plaques and provide their clear staining; clearance from the brain (Clearance from the brain): rapid clearance from the brain
Nc1ncc(-c2ccc3ccccc3n2)o1 [BF-239, 2-(2-aminooxazol-5-yl)quinoline]	–	high selectivity to neurofibrillary tangles	–
Nc1ncc(-c2ccc3ccccc3n2)s1 [BF-240, 2-(2-aminothiazol-5-yl)quinoline]	–	high selectivity to neurofibrillary tangles	–
Nc1cnc(-c2ccc3ccccc3n2)o1 [BF-255]	–	high selectivity to neurofibrillary tangles	–
O=C(O)c1cc(/C=C/c2ccc(/C=C/c3ccc(O)c(C(=O)O)c3)c(Br)c2)ccc1O [BSB, reference compound]	stains both senile plaques and neurofibrillary tangles	–	–
thioflavin S [reference compound]	stains both senile plaques and neurofibrillary tangles	provided enough staining of proteins other than tau protein	–
